Measured values as given in US20240299345A1, “GINKGOLIDE B AND ITS DERIVATIVES FOR INHIBITING AND/OR REVERSING AGING” (CHINA MEDICAL UNIVERSITY, priority 2023, published 2024).

How the values were obtained:
[1] = test system: 20-month-old aged female C57BL/6 mice; assay: Aging-related skeletal muscle wasting in aged mice; type: in vivo, mouse
Protocol: RIPA buffer (#ab156034, Abcam) containing 1X protease/phosphatase inhibitor (#1861281, Thermo Fisher Scientific) was used to lyse samples. Protein content was measured by BCA Protein Assay Kit (#23225, Thermo Fisher Scientific). Samples were loaded and separated in polyacrylamide gels and then transferred to PVDF membranes (#IPVH00010, Merck Millipore, Massachusetts, USA). The membranes were incubated with 5% BSA at room temperature for one hour and then incubated with primary antibodies overnight at 4° C., and then incubated with HRP-conjugated secondary antibodies (#SA00001-1, #SA100002-1, Proteintech, Rosemont, IL, USA) for one hour at room temperature. Signals were detected by the chemiluminescent substrate (#34095, Thermo Fisher Scientific) and were acquired by the ChemiDoc MP imaging system (Bio-Rad, Hercules, CA, USA).
(§1) Serum was collected by cardiac puncture upon sacrifice.
(§2) RNAs were purified by using the TRIzol® (#15596018, Invitrogen) and chloroform method (#C7559, Sigma-Aldrich) and reversed transcribed using High-Capacity cDNA Reverse Transcription Kit (#4368814, Applied Biosystems, Foster City, CA, USA). The quantitative RT-PCR was conducted with universal probe system (Roche Life Science, Indianapolis, IN, USA) by using a QuantStudio™ 7 Flex Real-Time PCR System (Applied Biosystems) and was normalized by the expression of GAPDH.
To investigate whether GB improves healthspan, we administered GB to 20-month-old aged mice, equivalent to 70-80-year-old humans, which is more relevant to potential clinical applications than intervention starting from young adulthood (Wang, S., Lai, X., Deng, Y. & Song, Y. Correlation between mouse age and human age in anti-tumor research: Significance and method establishment. Life Sci 242, 117242, doi: 10.1016/j.lfs.2019.117242 (2020)). After GB administration for two months, we assessed the healthspan domains in terms of sarcopenia, physical activity, metabolic health, frailty index, and inflammation (FIG. 2A) according to the criteria in clinical practice (Shamliyan, T., Talley, K. M., Ramakrishnan, R. & Kane, R. L. Association of frailty with survival: a systematic literature review. Ageing Res Rev 12, 719-736, doi: 10.1016/j.arr.2012.03.001 (2013)). As expected, circulating osteocalcin levels were decreased in aged mice, while GB administration increased osteocalcin levels (FIG. 2B, p<0.0001) toward the levels of those in young mice. […] In line with muscle loss, aging led to a decreased in total protein content (FIG. 2H, p<0.0001) in skeletal muscle with upregulation of muscle atrophy markers, Fbxo32 and Trim63, at transcript (FIG. 2K, p<0.0001 and=0.0005, respectively) and protein levels. (FIG. 2L, p=0.0182 and 0.0003, respectively). […] GB reversed the infiltration of adipose-like tissues by aging (FIGS. 2D and 2G, p=0.0012). […] GB administration reversed aging-related muscle wasting (FIG. 2K).

[2] = test system: skeletal muscle of aged C57BL/6 mice; assay: Muscle histology (fiber type, oil red O, Masson's trichrome, central nuclei) and vascular network in aged mice; type: in vivo, mouse; settings: GB 2 months
Protocol: (§3) Body composition was measured by Minispec LF50 TD-NMR (Bruker, MA, USA) based on nuclear magnetic resonance methods. Briefly, mice were anesthetized for the duration of the procedure by 3% isoflurane (Zoctis, London, UK) and placed in the scanning chamber in the prone position, with the limbs and tail stretched away from the body. The analysis would be conducted by default software per manufacturer's protocol. The vascular networks […] were quantified by in vivo micro-computed tomography (U-CT, Milabs, Netherlands). Briefly, mice intravenously received 150 μL ExiTron™ nano 12000 (#130-095-698, Miltonic Biotec GmbH, Bergisch Gladbach, Germany), and then mice were anesthetized with isoflurane before being positioned on the scanning chamber. After scanning, the blood vessels were analyzed by a curved multiplanar reconstruction algorithm by using Osirix software (Bernex, Switzerland).

[3] = test system: 20-month-old aged female C57BL/6 mice; assay: Metabolic health in aged mice (body weight, composition, intake, lipids, IPGTT, IPITT, gene expression); type: in vivo, mouse
Protocol: For the food and water intake measurement, mice were divided into individual animal cages individually for 3 days for stabilizing the animals, and then daily consumption was recorded. The values were calculated by adjusting for body weight.
as §3
Mice fasted 16 hours and 2 hours before performing an IPGT test and IPIT test, respectively. IPGTT was performed by intraperitoneal injection of fasted mice with 1% body weight of sterile glucose/PBS (20% weight/volume). IPITT was performed by intraperitoneal injection of fasted mice with insulin (0.75 unit/kg body weight) (#12585014, Gibco). Blood glucose levels were measured at indicative timepoints after injection by a blood glucometer (countour plus, Ascensia Diabetes Care, Hong Kong).
as §1, §2

[4] = test system: 20-month-old aged female C57BL/6 mice
Protocol: Animals were kept up to five per cage and were randomly assigned to control and experimental groups in all experiments. […] For the short-term experiment, 3-(young), 6-(adult) and 20-month-old (aged) female C57BL/6 mice were administered 12 mg/kg body weight GB (#G6910, Sigma-Aldrich, St. Louis, MO, USA) or vehicle daily by oral gavage for two months.
The noninvasive 31-item frailty index established by Whitehead et al. was used to evaluate frailty in mice (Whitehead, J. C. et al. A clinical frailty index in aging mice: comparisons with frailty index data in humans. J Gerontol A Biol Sci Med Sci 69, 621-632, doi:10.1093/gerona/glt136 (2014)). Whole assessments were conducted by blind investigators as possible. The scored items represent the aging-related deteriorations based on the criteria in clinical practice, consisting of the integument, musculoskeletal system, vestibulocochlear and auditory systems, ocular and nasal systems, digestive system, urogenital system, respiratory system, signs of discomfort, body weight and body surface temperature. Surface body temperature was determined by an infrared thermometer (Thermo Distance, Terraillon, Croissy-sur-seine, France), and grip strength was measured by the standard equipment described in the later section. The other subjective observations were scored by researchers. The scores 0, 0.5 and 1 indicated no sign of frailty, moderate defect and severe defect, respectively. For the body temperature, grip strength and body weight scoring, the average and standard deviation (STDEV) values were used as a baseline. A change within one STDEV is scored as a 0, a decreased change over one STDEV but lower than two STDEV was scored as a 0.5 and a change more than two STDEV was scored as a 1.

[5] = aged mice, GB 2 months, p<0.0001
[6] = among the three groups (young, vehicle-aged, GB-aged)
[7] = of 18 measurements increased by aging

CC1C(=O)OC2C(O)C34C5CC(C(C)(C)C)C36C(OC(=O)C6O)OC4(C(=O)O5)C12O (centres unmarked) [GB, Ginkgolide B]
circulating osteocalcin levels ([1]; aged (20-month-old) female mice, GB 12 mg/kg daily oral 2 months vs vehicle-aged, p<0.0001): increased | skeletal muscle-to-body ratio ([1]; aged mice, GB 12 mg/kg daily oral 2 months vs vehicle-aged): significantly increased | infiltration of adipose-like tissues by aging ([1]; aged mice, GB 12 mg/kg daily oral 2 months, p=0.0012): reversed | myofiber CSA ([1]; aged mice, quadriceps, GB 12 mg/kg daily oral 2 months vs vehicle-aged, p=0.0032): significantly increased | total protein content in aged skeletal muscle ([1]; gastrocnemius, aged mice, GB 12 mg/kg daily oral 2 months, p<0.0001): increased | expression level of Trim63 (mRNA and protein) ([1]; gastrocnemius, aged mice, GB 2 months, p=0.0039 and 0.0003): significant downregulation | expression level of Fbxo32 (mRNA and protein) ([1]; gastrocnemius, aged mice, GB 2 months, p=0.0078 and 0.0182): significant downregulation | capillary density ([2]; CD31 staining of quadriceps, p=0.0492): dramatically enlarges | aging-related changes in fiber-type switching ([2]; GA muscle, in particular type 1 and 2B myofibers): partially reversed | number of central myonuclei in aged myofibers ([2]; p=0.0011): reduced | collagen deposition in muscle ([2]; Masson's trichrome, GA muscle, p=0.0004): reduced | deep femoral artery ([2]; micro-CT, p=0.012): dramatically enlarges | intramuscular lipid infiltration ([2]; oil red O, GA muscle, p=0.01): reduced | food and water consumptions ([3]; aged mice, GB 2 months vs vehicle, p=0.5127 and 0.9368): not improved | lean mass [3, 5]: increase | whole-body fat mass [3, 5]: decrease | expression of Pkm in aged skeletal muscle ([3]; aged mice, GB 2 months, p<0.0001, not in aged liver): restored | expression of Glut4 in aged skeletal muscle ([3]; aged mice, GB 2 months, p=0.0035, not in aged liver): restored | aging-related alteration in serum total cholesterol level ([3]; aged mice, GB 2 months, p=0.0284): reversed | aging-related glucose intolerance (IPGTT) ([3]; aged mice, GB 2 months, p=0.0322 in AUC): improved | aging-related alteration in serum triglyceride level ([3]; aged mice, GB 2 months, p=0.0424): reversed | body weight reduction ([3]; aged mice, post-GB administration 2 months, p=0.0123): 6% | fasting blood glucose [3, 6]: no significant difference | insulin sensitivity (IPITT) [3, 6]: no difference | reduction of aging-related frailty index score ([4]; aged mice, GB 2 months vs vehicle-aged, p<0.0001): 63.1% | average frailty index score ([4]; aged mice, GB 2 months, mean±SD, vehicle-aged 0.43±0.13, young 0.01±0.01): 0.16±0.05 | deterioration of frailty ([4]; mouse, in vivo): did not observe any deterioration | number of aging-related frailty measurements modestly attenuated [4, 7]: 3 | number of aging-related frailty measurements reversed [4, 7]: 13
